Patent US20140057950A1, “DERIVATIVES OF ENGLERIN FOR THE TREATMENT OF CANCER” (MAX-PLANCK-GESELLSCHAFT ZUR FORDERUNG DE WISSENSCHAFTEN E.V., priority 2010, published 2014)

tested on: human kidney carcinoma cell line A498; experiment: Cell proliferation assay (WST-1), A498; type: cell-based; conditions: A498 cells, 48 hours treatment
Description: A498 cells were purchased from German Collection of Microorganisms and Cell Cultures, Germany. RC-124 cell line was purchased from CLS, Germany. Minimum Essential Medium (MEM), McCoy's 5a and Dulbecco's Modified Eagle's Medium (DMEM) were purchased from PAA, Austria. Fetal calf serum was purchased from Invitrogen, Germany. Non-essential amino acids and sodium pyruvate were purchased from Sigma-Aldrich, Germany.
The human kidney carcinoma cell line A498 was cultured in Minimum Essential Medium (MEM, with Earl's salts). The African green monkey cell line BSC-1 and the human embryonic kidney cell line HEK293 were maintained in Dulbecco's Modified Eagle's Medium (DMEM). The human kidney cell line RC-124 was cultured in McCoy's 5a medium. All media were supplemented with 10% fetal calf serum and penicillin and streptomycin. The cells were maintained at 37° C. in a 5% CO2 humidified atmosphere. Cells were discarded after 20 passages.
Cell proliferation was determined as a function of the metabolic activity by means of the cell proliferation reagent WST-1 (Roche, Mannheim Germany). 4000 cells were seeded in quadruplicates into the wells of 96 well plates and were allowed to attach for 24 hours prior to treatment with different compound concentrations for 48 hours. All samples contained 0.1% DMSO. After the treatment, the WST-1 reagent was added to the cells according to the manufacturer's protocol. The absorbance was measured with the Inifinite® M200 plate reader (Tecan, Austria) at 450/690 nm. Mean values (n=4) were used to generate dose-response curves by fitting to a four-parameter IC50 equation. The IC50 values for each compound were calculated with the software GraFit 5.0.
The following IC50 values were obtained for the human kidney carcinoma cell line A498. Very similar IC50 values were obtained for the African green monkey cell line BSC-1, the human embryonic kidney cell line HEK293 and the human kidney cell line RC-124.

IC50 | Compound
0.5 to 5 µM | CCC12C[C@@H](OC(=O)CO)[C@@](C)(O1)[C@@H]1CC[C@@H](C)[C@H]1[C@@H]2OC(=O)/C=C/c1ccccc1 [Compound 13]
0.5 to 5 µM | C[C@@H]1CC[C@@H]2[C@@H]1[C@H](OC(=O)/C=C/c1ccccc1)[C@]1(C)C[C@@H](OC(=O)CO)[C@@]2(C)O1 [Compound 14]
< 0.03 µM | CC(C)C12C[C@@H](OC(=O)CO)[C@@](C)(O1)[C@@H]1CC[C@@H](C)[C@H]1[C@@H]2OC(=O)c1ccc2ccccc2c1 [Compound 16]
0.5 to 5 µM | CC(C)C12C[C@@H](OC(=O)CO)[C@@](C)(O1)[C@@H]1CC[C@@H](C)[C@H]1[C@@H]2OC(=O)/C=C/c1ccc(F)cc1 [Compound 18]
0.5 to 5 µM | CC(C)C12C[C@@H](OC(=O)CO)[C@@](C)(O1)[C@@H]1CC[C@@H](C)[C@H]1[C@@H]2OC(=O)/C=C/c1ccc(Cl)cc1 [Compound 19]
0.5 to 5 µM | CC(C)C12C[C@@H](OC(=O)CO)[C@@](C)(O1)[C@@H]1CC[C@@H](C)[C@H]1[C@@H]2OC(=O)/C=C/c1ccc2c(c1)OCO2 [Compound 23]
0.5 to 5 µM | C/C(=C\c1ccccc1)C(=O)O[C@H]1[C@@H]2[C@H](C)CC[C@H]2[C@]2(C)OC1(C(C)C)C[C@H]2OC(=O)CO [Compound 26]
0.5 to 5 µM | CC(C)C12C[C@@H](OC(=O)CO)[C@@](C)(O1)[C@@H]1CC[C@@H](C)[C@H]1[C@@H]2OC(=O)c1ccc(Cl)cc1 [Compound 29]
0.5 to 5 µM | CC(C)C12C[C@@H](OC(=O)CO)[C@@](C)(O1)[C@@H]1CC[C@@H](C)[C@H]1[C@@H]2OC(=O)c1ccc([N+](=O)[O-])cc1 [Compound 30]
0.1 to 0.5 µM | CC(C)C12C[C@@H](OC(=O)CO)[C@@](C)(O1)[C@@H]1CC[C@@H](C)[C@H]1[C@@H]2OC(=O)c1ccc(Cl)c(Cl)c1 [Compound 31]
< 0.03 µM | CC(C)[C@@]12C[C@@H](OC(=O)CO)C(C)(O1)[C@@H]1CC[C@@H](C)[C@H]1[C@@H]2OC(=O)c1ccc2c(c1)CCCC2 [Compound 36]
0.03 to 0.1 µM | CC(C)[C@@]12C[C@@H](OC(=O)CO)C(C)(O1)[C@@H]1CC[C@@H](C)[C@H]1[C@@H]2OC(=O)C1CCc2ccccc2C1 (stereo partly drawn) [Compound 37]
< 0.03 µM | Cc1c(C(=O)O[C@H]2[C@@H]3[C@H](C)CC[C@H]3C3(C)O[C@@]2(C(C)C)C[C@H]3OC(=O)CO)ccc2ccccc12 [Compound 39]
< 0.03 µM | Cc1c(C(=O)O[C@H]2[C@@H]3[C@H](C)CC[C@H]3C3(C)O[C@@]2(C(C)C)C[C@H]3OC(=O)CO)ccc2c1CCCC2 [Compound 40]
0.03 to 0.1 µM | CC(C)[C@@]12C[C@@H](OC(=O)CO)C(C)(O1)[C@@H]1CC[C@@H](C)[C@H]1[C@@H]2OC(=O)c1ccc(C2(C(F)(F)F)N=N2)cc1 [Compound 41]
0.5 to 5 µM | COCC(=O)O[C@@H]1C[C@]2(C(C)C)OC1(C)[C@@H]1CC[C@@H](C)[C@H]1[C@@H]2OC(=O)/C=C/c1ccccc1 [Compound 43]
0.1 to 0.5 µM | C#CCCCC(=O)OCC(=O)O[C@@H]1C[C@]2(C(C)C)OC1(C)[C@@H]1CC[C@@H](C)[C@H]1[C@@H]2OC(=O)/C=C/c1ccccc1 [Compound 44]
0.5 to 5 µM | C#CCOCC(=O)O[C@@H]1C[C@]2(C(C)C)OC1(C)[C@@H]1CC[C@@H](C)[C@H]1[C@@H]2OC(=O)/C=C/c1ccccc1 [Compound 46]
0.5 to 5 µM | CC(C)C12C[C@@H](OC(=O)[C@H](C)O)[C@@](C)(O1)[C@@H]1CC[C@@H](C)[C@H]1C2OC(=O)/C=C/c1ccccc1 (stereo partly drawn) [Compound 52]
0.1 to 0.5 µM | CC(C)C12C[C@@H](OC(=O)[C@@H](C)O)[C@@](C)(O1)[C@@H]1CC[C@@H](C)[C@H]1C2OC(=O)/C=C/c1ccccc1 (stereo partly drawn) [Compound 53]
0.1 to 0.5 µM | CC(C)C12C[C@@H](OC(=O)[C@H](C)O)[C@@](C)(O1)[C@@H]1CC[C@@H](C)[C@H]1C2OC(=O)c1ccc2ccccc2c1 (stereo partly drawn) [Compound 54]
0.03 to 0.1 µM | CC(C)C12C[C@@H](OC(=O)[C@@H](C)O)[C@@](C)(O1)[C@@H]1CC[C@@H](C)[C@H]1C2OC(=O)c1ccc2ccccc2c1 (stereo partly drawn) [Compound 55]
0.5 to 5 µM | C#CC[C@@H](O)C(=O)O[C@@H]1CC2(C(C)C)O[C@@]1(C)[C@@H]1CC[C@@H](C)[C@H]1C2OC(=O)c1ccc2c(c1)CCCC2 (stereo partly drawn) [Compound 56]
0.5 to 5 µM | C#CC[C@@H](O)C(=O)O[C@@H]1CC2(C(C)C)O[C@@]1(C)[C@@H]1CC[C@@H](C)[C@H]1C2OC(=O)c1ccc2ccccc2c1 (stereo partly drawn) [Compound 57]
0.5 to 5 µM | C#CC[C@@H](O)C(=O)O[C@@H]1CC2(C(C)C)O[C@@]1(C)[C@@H]1CC[C@@H](C)[C@H]1C2OC(=O)c1ccc(C2(C(F)(F)F)N=N2)cc1 (stereo partly drawn) [Compound 58]

Compound | IC50
CC(C)C12C[C@@H](OC(=O)CO)[C@@](C)(O1)[C@@H]1CC[C@@H](C)[C@H]1[C@@H]2OC(=O)/C=C/C1CCCCC1 [Compound 15] | < 0.03 µM
C/C(=C\C(=O)O[C@H]1[C@@H]2[C@H](C)CC[C@H]2[C@]2(C)OC1(C(C)C)C[C@H]2OC(=O)CO)c1ccccc1 [Compound 17] | < 0.03 µM
CC(C)C12C[C@@H](OC(=O)CO)[C@@](C)(O1)[C@@H]1CC[C@@H](C)[C@H]1[C@@H]2OC(=O)/C=C/c1c(F)cccc1Cl [Compound 24] | 0.03 to 0.1 µM
CC(C)[C@@]12C[C@@H](OC(=O)CO)C(C)(O1)[C@@H]1CC[C@@H](C)[C@H]1[C@@H]2OC(=O)C1CCC2CCCCC2C1 (stereo partly drawn) [Compound 38] | 0.03 to 0.1 µM
C#CCCCC(=O)O[C@@H]1C[C@]2(C(C)C)OC1(C)[C@@H]1CC[C@@H](C)[C@H]1[C@@H]2OC(=O)/C=C/c1ccccc1 [Compound 45] | 0.5 to 5 µM
